Values quoted from earlier work in article PMC3598812, “Evaluation of Anti-Hyperalgesic and Analgesic Effects of Two Benzodiazepines in Human Experimental Pain: A Randomized Placebo-Controlled Study” (PLoS ONE, 2013).

Columns and labels:
[1] = trial protocol, cited from earlier work
[2] = test system: patients / volunteers; conditions: placebo-controlled, double-blind trial, 114 outpatients with anxiety; mean doses 59 mg clobazam daily, 25 mg diazepam daily; ref Micromedex 2009; cited from earlier work
[3] = test system: healthy male subjects; set-up: method as in PMID 19038771; conditions: capsaicin model, previous study; standard deviation 11.54; cited from earlier work

Compound: CCOC(=O)c1ncn2c1CN(C)C(=O)c1cc(F)ccc1-2 [Flumazenil]
- t1/2 ([1]; iv): about 50 minutes

Compound: O=C1CC(=O)N(c2ccccc2)c2cc(Cl)ccc2N1 [N-desmethylclobazam]
- Half life (t1/2) ([1]; drug background): 50 h

Compound: CN1C(=O)CN=C(c2ccccc2)c2cc(Cl)ccc21 [diazepam]
- Dizziness, share of treated patients [2]: 11%
- Sedation, share of treated patients [2]: 44%

Compound: CC(C)C[C@H](CN)CC(=O)O [pregabalin]
- Reduction in the area of hyperalgesia [3]: 10.91 cm^2
